From patent publication US9980943B2, “Methods of treating muscular dystrophy” (BOARD OF REGENTS OF THE NEVADA SYSTEM OF HIGHER EDUCATION, …, priority 2013, dated 2018) come the findings set out here.

Holding throughout (type): cell-based, mouse
Experiment [1] has as its system α7 integrin (LacZ reporter in α7+/LacZ myotubes). As to the kind of experiment: Myotube α7 integrin FDG assay (Burkin assay in myotubes, 96-well). Particulars: myotubes; for fold induction at 0.5 µM / fold induction at 1 µM / fold induction at 5 µM / fold induction at 10 µM / fold induction at 20 µM / fold induction at 40 µM: Mus musculus, Myotube, read-out: Burkin Assay in Myotubes (signal relative to DMSO).

The test system of experiment [2] is β-galactosidase in CMV-LacZ C2C12 myotubes. As to the kind of experiment: CMV-LacZ secondary screen in C2C12 myotubes (β-Gal stabilizing assay). As to conditions: for CMV-LACZ in Myotubes (β-galactosidase activity relative to DMSO): CMV-LacZ C2C12 myotubes, 96-well format. Summed up:
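β-Gal level was the read-out, measured in a clonal C2C12 line expressing LacZ from a CMV promoter. Dose-response curves used six concentrations, 0.5 μM up to 40 μM, with duplicate points.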

In experiment [3] the test system is α7 integrin (LacZ reporter in α7βgal+/− myoblasts). The experiment is described as follows: Myoblast α7+/LacZ integrin FDG assay (Burkin assay in myoblasts, 96-well). As to conditions: α7+/LacZ myoblasts, 96-well; for fold induction at 0.5 µM / fold induction at 1 µM / fold induction at 5 µM / fold induction at 10 µM / fold induction at 20 µM / fold induction at 40 µM: Mus musculus, Myoblast, 48 h, read-out: Burkin Assay in Myoblasts, value relative to DMSO.

[4] abbreviates: 5 uM, C2C12 CMV-LacZ myotubes, fold relative to DMSO.
The mark [5] stands for this setting: 10 uM, C2C12 CMV-LacZ myotubes, fold relative to DMSO.
The mark [6] stands for this setting: 20 uM, C2C12 CMV-LacZ myotubes, fold relative to DMSO.
The mark [7] stands for this setting: 40 uM, C2C12 CMV-LacZ myotubes, fold relative to DMSO.

`Cc1ccc(NC(=O)C2CCCCC2C(=O)O)cc1C` (stereo not shown) [MLS000850824-01]: the fold induction at 0.5 µM amounted to 0.908 in experiment [1] (0.5 uM) and 1.17 in experiment [3] (0.5 uM). For the same molecule, the fold induction at 1 µM in experiment [1] (1 uM) was 1.09; in experiment [3] (1 uM) it was 1.27. In addition, the fold induction at 5 µM in experiment [1] (5 uM) is 0.99; in experiment [2] (Mus musculus, C2C12, read-out: CMV-LACZ in Myotubes, signal relative to DMSO, 5 uM, C2C12 CMV-LacZ myotubes, fold relative to DMSO), 0.885; in experiment [3] (5 uM), 1.08. For the same molecule, the fold induction at 10 µM in experiment [1] (10 uM) came out at 1.07; in experiment [2] (Mus musculus, C2C12, read-out: CMV-LACZ in Myotubes, signal relative to DMSO, 10 uM, C2C12 CMV-LacZ myotubes, fold relative to DMSO), 0.992; in experiment [3] (10 uM) it was 1.08. Also, the fold induction at 20 µM is 1.14 in experiment [1] (20 uM); 0.995 in experiment [2] (Mus musculus, C2C12, read-out: CMV-LACZ in Myotubes, signal relative to DMSO, 20 uM, C2C12 CMV-LacZ myotubes, fold relative to DMSO); 0.986 in experiment [3] (20 uM). In addition, the fold induction at 40 µM in experiment [1] (40 uM) is 1.21; in experiment [2] (Mus musculus, C2C12, read-out: CMV-LACZ in Myotubes, signal relative to DMSO, 40 uM, C2C12 CMV-LacZ myotubes, fold relative to DMSO), 0.946; in experiment [3] (40 uM), 1.06.

Consider `COc1ccc(C)cc1NC(=O)c1ccc2c(O)c(S(=O)(=O)c3ccccc3)c(=O)[nH]c2c1` [MLS001122718-01], for which the “Burkin Assay in Myotubes, α7 integrin LacZ reporter signal relative to DMSO” value was 1.011 in experiment [1] (0.5 uM); 0.9435 in experiment [1] (1 uM); 1.069 in experiment [1] (5 uM); 1.106 in experiment [1] (10 uM); 1.089 in experiment [1] (20 uM); 0.9804 in experiment [1] (40 uM). For the same molecule, the “CMV-LACZ in Myotubes, signal relative to DMSO” value in experiment [2] (setting [4]) is given as 0.8862; in experiment [2] (setting [5]), 0.9662; in experiment [2] (setting [6]) it was 0.9567; in experiment [2] (setting [7]), 0.89. In addition, the “Burkin Assay in Myoblasts, signal relative to DMSO” value in experiment [3] (0.5 uM) stood at 1.1056; in experiment [3] (1 uM), 1.041; in experiment [3] (5 uM), 1.033; in experiment [3] (10 uM) it was 0.9092; in experiment [3] (20 uM) it was 0.9923; in experiment [3] (40 uM) it was 0.9332.

Take `CC(=O)c1cccc(NC(=O)C2CCCN(S(=O)(=O)c3cccc4nonc34)C2)c1` (stereo not shown) [MLS000937079-01]: the “Burkin Assay in Myotubes (signal relative to DMSO)” value in experiment [1] (0.5 uM) is reported as 1.0515; in experiment [1] (1 uM), 0.6372; in experiment [1] (5 uM), 0.9756; in experiment [1] (10 uM), 0.8882; in experiment [1] (20 uM) it was 1.142; in experiment [1] (40 uM) it was 0.9197. The “CMV-LACZ in Myotubes (β-galactosidase activity relative to DMSO)” value in experiment [2] (5 uM) was determined as 1.087; in experiment [2] (10 uM), 0.9923; in experiment [2] (20 uM) it was 0.9641; in experiment [2] (40 uM), 0.9682. Also, the “Burkin Assay in Myoblasts, value relative to DMSO” value in experiment [3] (0.5 uM) is reported as 1.163; in experiment [3] (1 uM), 0.8958; in experiment [3] (5 uM), 1.053; in experiment [3] (10 uM), 1.147; in experiment [3] (20 uM), 1.028; in experiment [3] (40 uM), 0.9956.

Take `COc1cccc(N2C(=O)CC(N3CCc4ccccc4C3)C2=O)c1` (stereo not shown) [MLS000769322-01]: the “Burkin Assay in Myotubes (signal relative to DMSO)” value in experiment [1] (0.5 uM) was found to be 0.9609; in experiment [1] (1 uM), 1.055; in experiment [1] (5 uM), 1.1195; in experiment [1] (10 uM), 1.165; in experiment [1] (20 uM), 1.067; in experiment [1] (40 uM), 1.019. For the same molecule, the “CMV-LACZ in Myotubes (β-galactosidase activity relative to DMSO)” value in experiment [2] (5 uM) came out at 0.8609; in experiment [2] (10 uM) it was 1.02; in experiment [2] (20 uM) it was 1.118; in experiment [2] (40 uM), 1.091. Also, the “Burkin Assay in Myoblasts, value relative to DMSO” value is reported as 0.9535 in experiment [3] (0.5 uM); 0.9354 in experiment [3] (1 uM); 0.9653 in experiment [3] (5 uM); 1.0771 in experiment [3] (10 uM); 1.006 in experiment [3] (20 uM); 0.955 in experiment [3] (40 uM).

In the case of `Cc1ccc(NC(=O)NCc2nc3ccccc3n2C)cc1` [MLS001175592-01], the “Burkin Assay in Myotubes (signal relative to DMSO)” value in experiment [1] (0.5 uM) stood at 0.9685; in experiment [1] (1 uM), 0.986; in experiment [1] (5 uM), 0.6911; in experiment [1] (10 uM) it was 1.034; in experiment [1] (20 uM) it was 0.6445; in experiment [1] (40 uM), 1.047. Moreover, the “CMV-LACZ in Myotubes, signal relative to DMSO” value in experiment [2] (setting [4]) stood at 0.947; in experiment [2] (setting [5]), 1.031; in experiment [2] (setting [6]), 0.9649; in experiment [2] (setting [7]), 1.018. In addition, the “Burkin Assay in Myoblasts, value relative to DMSO” value is 0.8989 in experiment [3] (0.5 uM); 0.8859 in experiment [3] (1 uM); 0.9323 in experiment [3] (5 uM); 0.9006 in experiment [3] (10 uM); 0.9731 in experiment [3] (20 uM); 0.9405 in experiment [3] (40 uM).

Take `CCCCNC(=O)CN(C(=O)c1snc(C(=O)NC2CCCCC2)c1N)c1ccc(OC)cc1OC` [MLS001217697-01]: the fold induction at 0.5 µM was found to be 1.2 in experiment [1] (0.5 uM) and 1.09 in experiment [3] (0.5 uM). Moreover, the fold induction at 1 µM in experiment [1] (1 uM) was found to be 0.968; in experiment [3] (1 uM), 1.12. Also, the fold induction at 5 µM in experiment [1] (5 uM) came to 1.16; in experiment [3] (5 uM), 1.18. Further, the fold induction at 10 µM in experiment [1] (10 uM) was found to be 1.2; in experiment [3] (10 uM), 1.16. The fold induction at 20 µM is 1.12 in experiment [1] (20 uM) and 0.883 in experiment [3] (20 uM). Also, the fold induction at 40 µM in experiment [1] (40 uM) came to 1.12; in experiment [3] (40 uM) it was 1.01. Moreover, the “CMV-LACZ in Myotubes (β-galactosidase activity relative to DMSO)” value worked out at 1.2 in experiment [2] (5 uM), 0.8647 in experiment [2] (10 uM), 0.764 in experiment [2] (20 uM) and 0.7395 in experiment [2] (40 uM).

Take `CC1CCCCC12NC(=O)N(CC(=O)OCc1cccc(F)c1)C2=O` (stereo not shown) [MLS002161350-01]: the “Burkin Assay in Myotubes, α7 integrin LacZ reporter signal relative to DMSO” value in experiment [1] (0.5 uM) worked out at 0.9844; in experiment [1] (1 uM) it was 1.177; in experiment [1] (5 uM), 0.7783; in experiment [1] (10 uM), 0.987; in experiment [1] (20 uM), 1.049; in experiment [1] (40 uM), 1.116. The “CMV-LACZ in Myotubes, signal relative to DMSO” value in experiment [2] (setting [4]) was 0.906; in experiment [2] (setting [5]), 0.9679; in experiment [2] (setting [6]) it was 0.8847; in experiment [2] (setting [7]), 1.046. In addition, the “Burkin Assay in Myoblasts, signal relative to DMSO” value in experiment [3] (0.5 uM) was determined as 0.9404; in experiment [3] (1 uM), 0.9236; in experiment [3] (5 uM), 0.9531; in experiment [3] (10 uM) it was 0.9514; in experiment [3] (20 uM), 0.822; in experiment [3] (40 uM), 0.8262.
